In article PMC5984625, “Dynamic structural states of ClpB involved in its disaggregation function” (Nature Communications, 2018):

Target: T1, ΔN-TClpB (Thermus thermophilus, UniProt Q9RA63)
T1 construct: gene clpB; N-terminal domain deletion (AAA1, M-domain and AAA2 kept); from plasmid pMCB1; expressed in E. coli BL21(DE3) or KRX; purified; hexamer and smaller oligomers
Experiment: fluorescence displacement of mant-ADP
Conditions: per monomer; competitive binding model; 12.5 μM mant-ADP; Mg-ATP; pH 7.5, 20 mM KCl, 5 mM MgCl2, 25 °C; read-out: apparent Kd

T1 sequence (Q9RA63 141-854, stated change not applied): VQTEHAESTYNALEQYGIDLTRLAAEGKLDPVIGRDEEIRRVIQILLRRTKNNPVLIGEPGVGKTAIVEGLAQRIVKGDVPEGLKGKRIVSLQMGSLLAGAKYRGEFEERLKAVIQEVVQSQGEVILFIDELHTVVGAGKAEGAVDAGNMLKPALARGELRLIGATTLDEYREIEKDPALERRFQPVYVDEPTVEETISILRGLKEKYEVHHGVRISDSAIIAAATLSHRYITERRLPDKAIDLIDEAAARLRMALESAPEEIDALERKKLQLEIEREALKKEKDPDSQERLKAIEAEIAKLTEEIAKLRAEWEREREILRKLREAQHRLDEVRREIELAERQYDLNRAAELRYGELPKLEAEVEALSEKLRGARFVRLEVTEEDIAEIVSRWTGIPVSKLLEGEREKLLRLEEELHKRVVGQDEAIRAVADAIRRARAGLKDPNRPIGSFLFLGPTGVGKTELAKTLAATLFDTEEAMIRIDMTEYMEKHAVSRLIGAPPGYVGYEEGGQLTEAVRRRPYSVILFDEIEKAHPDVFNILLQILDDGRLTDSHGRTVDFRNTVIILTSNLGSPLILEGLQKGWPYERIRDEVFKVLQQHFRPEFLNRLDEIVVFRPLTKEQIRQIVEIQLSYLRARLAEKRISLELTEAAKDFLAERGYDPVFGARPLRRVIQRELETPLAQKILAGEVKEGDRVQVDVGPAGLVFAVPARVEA

`Nc1ncnc2c1ncn2[C@@H]1O[C@H](COP(=O)(O)OP(=O)(O)OP(=O)(O)O)[C@@H](O)[C@H]1O` [ATP] showed a Kd of 9.2 µM.
